79 compounds from PubChem BioAssay AID720512 (Broad Institute, 2013) can be followed below.

The source made the active and inactive calls. The rule behind the calls is not given here.

The first test addresses Toxin B (TcdB) glycohydrolase, Clostridioides difficile 630. Description: TcdB glycohydrolase inhibitors, dose response, biochemical, cherry-pick, plate reader (AID 720512). To be noted: recombinant TcdB glycohydrolase activity.
In the case of `CC(=O)N(C)C[C@@H]1Oc2cc(/C=C/c3ccccc3)ccc2S(=O)(=O)N([C@H](C)CO)C[C@@H]1C`, the AC50 is > 39 µM (inactive). For `CCN(CC)CCCCN1c2ccccc2Sc2ccccc21`, the AC50 was > 39 µM (inactive). Regarding `CCCNC(=O)C[C@H]1CC[C@@H]2[C@H](COc3ccc(NC(=O)c4ccc(Cl)cc4)cc3C(=O)N2C)O1`, the AC50 was > 39 µM (inactive).

On to `Oc1ccc(Nc2nc(Cl)nc(NCc3ccco3)n2)cc1`, for which the AC50 is 21.7 µM. For the compound `O=C1Nc2ccc(Br)cc2C1Cc1ccccc1F` (centres undefined), the AC50 is > 39 µM (inactive). On the same count and under the same terms, next, `COc1cc(/C=C/C(=O)OCC(=O)NC(=O)NC(C)(C)C)ccc1O`: > 39 µM (inactive). As to `CCOc1cc(/C=N/n2cnnc2)ccc1O`, the AC50 is > 39 µM (inactive). In the case of `FC(F)(F)c1cc(CCN2CCNC[C@H]2Cc2cccc3ccccc23)cc(C(F)(F)F)c1`, the AC50 was > 39 µM (inactive).

Staying with this test, now noted: recombinant TcdB glycohydrolase activity, at 3.5 µM (top of the series).
In the case of `CO[C@@H]1CN(C)C(=O)c2cc(NC(=O)NC(C)C)ccc2OC[C@@H](C)N(S(C)(=O)=O)C[C@H]1C`, the “activity change, negative = inhibition” value was “inactive”.

The test is the same for the next values; noted with them: recombinant TcdB glycohydrolase activity, at 10 µM (top of the series).
Take `O=c1c(OC2OC(CO)C(O)C(O)C2O)c(-c2ccc(O)c(O)c2)oc2cc(O)cc(O)c12` (centres undefined): the “activity change, negative = inhibition” value is “inactive”.

The test is the same for the next values; noted with them: recombinant TcdB glycohydrolase activity, at 19.5 µM (top of the series).
Turning to `O=c1[nH]c(CN2CCOCC2)nc2cc(Cl)ccc12`, the “activity change, negative = inhibition” value is “inactive”.

Turning to `CCCc1cc(-c2n[nH]c(C(=O)OCC)c2-c2cscn2)c(O)cc1O`, the “activity change, negative = inhibition” value was “inactive”. As for `CC(=O)Nc1cc(-c2ccc(F)cc2)[nH]n1`, the “activity change, negative = inhibition” value was “inactive”. Still for that read-out and setting: next, `O=C(O)c1ccc(-c2nnc(-c3ccccc3)o2)cc1`: “inactive”.

As for `COCCNc1cc(N)c([N+](=O)[O-])cc1[N+](=O)[O-]`, the “activity change, negative = inhibition” value was “inactive”. For the compound `CCC(=O)Nc1ccc2c(c1)OC[C@@H](C)N(C(=O)NC(C)C)C[C@H](C)[C@H](OC)CN(C)C2=O`, the “activity change, negative = inhibition” value is “inactive”.

On to `COc1ccc(CNC(=O)Cc2cn(C)c3ccccc23)c(OC)c1`, for which the “activity change, negative = inhibition” value is “inactive”. Consider `CCOC(=O)c1ccc(-n2c(CCC(=O)O)ccc2-c2ccc(F)cc2)cc1`, for which the “activity change, negative = inhibition” value was “inactive”. In the case of `COCc1c(Br)c(C)nc(OCC(=O)N/N=C/c2ccc(C)o2)c1C#N`, the “activity change, negative = inhibition” value is “inactive”. Regarding `Nc1nc(Cl)cc(NCCc2ccc(O)cc2)n1`, the “activity change, negative = inhibition” value is “inactive”. As for `O=S(=O)(c1ccccc1)N1CCN(Cc2nnc(-c3ccccc3)o2)CC1`, the “activity change, negative = inhibition” value is “inactive”. Regarding `O=C(Nc1ccc2c(c1)OCCO2)c1cc2ccccc2o1`, the “activity change, negative = inhibition” value is “inactive”. On the same count and under the same terms, next, `S=C(NCCc1ccccc1)Nc1ncccn1`: “inactive”; `CC(C)OC(=O)c1cccc(C(=O)O)n1`: “inactive”. For `Cc1ccc(-c2cc(C(=O)OC3CCOC3=O)c3ccccc3n2)c(C)c1` (centres undefined), the “activity change, negative = inhibition” value was “inactive”.

As to `CC(=O)C1=CCC(c2ccc(C)cc2)N(S(=O)(=O)c2ccc(C)cc2)C1` (centres undefined), the “activity change, negative = inhibition” value is “inactive”. Turning to `N#CCCN(C(=O)COC(=O)c1cc(=O)c2ccccc2o1)c1ccccc1`, the “activity change, negative = inhibition” value is “inactive”. Same read-out and setting: next, `COc1ccc(CNC(=O)C2=CC(c3ccc(C)cc3)=NS(=O)(=O)N2C)cc1`: “inactive”; `CN1C(=O)c2cc(NC(=O)c3cccc(F)c3)ccc2OC[C@H]2O[C@H](CC(=O)NCC3CCCCC3)CC[C@@H]21`: “inactive”.

For the compound `CCCNC(=O)Nc1ccc2c(c1)C(=O)N(C)[C@@H]1CC[C@H](CC(=O)NC3CCC3)O[C@H]1CO2`, the “activity change, negative = inhibition” value is “inactive”. Consider `COC(=O)c1ccc(OC(=O)c2ccc(OC)cc2)c(OC)c1`, for which the “activity change, negative = inhibition” value is “inactive”.

Consider `Cn1c(=O)[nH]c(=O)c2c1[nH]c(=S)n2CCCc1ccccc1`, for which the “activity change, negative = inhibition” value is “inactive”. Consider `COc1ccccc1/C=N/NC(=O)CC(=O)NCc1ccccc1`, for which the “activity change, negative = inhibition” value is “inactive”.

With `Cn1cnnc1SCC(=O)NC1CCCCC1`, the “activity change, negative = inhibition” value is “inactive”. Turning to `C[C@@H]1C=C[C@](Cc2ccccc2)(C(=O)NCC2CC2)N1C(=O)c1ccccc1`, the “activity change, negative = inhibition” value was “inactive”. Regarding `Cc1ccc(NNC(=O)c2ccno2)cc1C`, the “activity change, negative = inhibition” value was “inactive”. Turning to `CC(/C=N/n1c(-c2ccncc2)n[nH]c1=S)=C\c1ccco1`, the “activity change, negative = inhibition” value is “inactive”.

As for `CC(C(=O)OCC(=O)c1c(N)n(C)c(=O)n(C)c1=O)N1C(=O)c2ccccc2C1=O` (centres undefined), the “activity change, negative = inhibition” value was “inactive”.

Regarding `Cc1nc2[nH]c(=S)[nH]c2c(=O)[nH]1`, the “activity change, negative = inhibition” value was “inactive”. Take `CNC(=O)C[C@H]1CC[C@@H]2[C@@H](COc3ccc(NC(=O)c4cccc(OC)c4)cc3C(=O)N2C)O1`: the “activity change, negative = inhibition” value is “inactive”.

Consider `Cc1cc(C(=O)N2CCN(Cc3ccccc3)CC2)ccc1[N+](=O)[O-]`, for which the “activity change, negative = inhibition” value was “inactive”. `CC(Oc1ccc(Cl)cc1Cl)C(=O)Nc1ccc(O)cc1` (centres undefined): the “activity change, negative = inhibition” value is “inactive”.

For the compound `COc1ccc(/C=C/c2onc(C)c2S(=O)(=O)N2CCC(C(=O)N3CCCCCC3)CC2)cc1`, the “activity change, negative = inhibition” value was “inactive”. For `Cc1cc(N2CCCC2=O)cc(C)c1S(=O)(=O)Nc1c(C)nn(C)c1C`, the “activity change, negative = inhibition” value was “inactive”. For the compound `COc1ccccc1Oc1cn[nH]c1-c1ccc(O)cc1O`, the “activity change, negative = inhibition” value was “inactive”. `O=C(COc1ccccc1)Nc1ccc(S(=O)(=O)Nc2ncccn2)cc1`: the “activity change, negative = inhibition” value was “inactive”. Regarding `O=C(C[C@H]1CC[C@@H]2[C@H](COC[C@@H](O)CN2C(=O)c2ccccn2)O1)NC1CCC1`, the “activity change, negative = inhibition” value is “inactive”. Regarding `O=C(Nc1ccc(O)cc1)c1ccc2c(c1)C(=O)N(Cc1ccco1)C2=O`, the “activity change, negative = inhibition” value was “inactive”. As for `Cc1ccc(NNC(=O)c2ccno2)cc1Cl`, the “activity change, negative = inhibition” value is “inactive”.

On to `Cc1ccc(C2=NS(=O)(=O)N(C)C(C(=O)NCc3ccc(F)cc3)=C2)cc1`, for which the “activity change, negative = inhibition” value is “inactive”.

For `CCc1ccc(NC(=O)c2cc(C)on2)cc1`, the “activity change, negative = inhibition” value is “inactive”. For `COc1ccc2nccc(/C=C/c3ccnc4ccc(OC)cc34)c2c1`, the “activity change, negative = inhibition” value was “inactive”. `Cc1ccc(S(=O)(=O)Nc2cccnc2Oc2ccc(Cl)cc2)cc1`: the “activity change, negative = inhibition” value is “inactive”. As for `O=C(N[C@@H](Cc1c[nH]c2ccccc12)C(=O)O)C1CCN(S(=O)(=O)c2cccs2)CC1`, the “activity change, negative = inhibition” value was “inactive”. On the same count and under the same terms, next, `Nn1c(SCc2ccccc2F)nnc1-c1ccccn1`: “inactive”; `CCNC(=O)C[C@H]1CC[C@@H]2[C@@H](COc3ccc(NC(C)=O)cc3C(=O)N2C)O1`: “inactive”; `Cc1cc(N/N=C/c2ccncc2)nc2ccccc12`: “inactive”. As to `O=C(Cn1cc(COc2ccc(Cl)c(Cl)c2)nn1)NS(=O)(=O)c1ccccc1OC(F)(F)F`, the “activity change, negative = inhibition” value was “inactive”. Take `CCOC(=O)N1CCN=C1SCc1ccc(Cl)c(Cl)c1`: the “activity change, negative = inhibition” value is “inactive”.

`CC(=O)N1CCN(c2ccc(S(C)(=O)=O)cc2[N+](=O)[O-])CC1`: the “activity change, negative = inhibition” value was “inactive”.

For the compound `O=C(Nc1ccc(O)cc1)/C(=C\c1cccs1)NC(=O)c1ccccc1`, the “activity change, negative = inhibition” value is “inactive”. As for `CCC(=Nc1ccccc1)C1=C(O)CCCC1=O`, the “activity change, negative = inhibition” value is “inactive”. Regarding `Cc1ccc(/C=C/c2onc(C)c2S(=O)(=O)N2CCC(C(=O)NC(C)(C)C)CC2)cc1`, the “activity change, negative = inhibition” value is “inactive”. Turning to `O=C(CC(c1ccccc1)c1ccccc1)Nc1ccc(O)cc1`, the “activity change, negative = inhibition” value is “inactive”. In the case of `COc1cc(/C=C/C(=O)OCC(=O)N(C)Cc2ccccc2)ccc1O`, the “activity change, negative = inhibition” value was “inactive”. Take `O=C(CSc1ccc2nnc(-c3ccc(F)cc3)n2n1)N1CCOCC1`: the “activity change, negative = inhibition” value was “inactive”.

With `CNC(=O)C1Cc2c(-c3ccccc3Oc3ccccc3)ccnc2O1` (centres undefined), the “activity change, negative = inhibition” value was “inactive”.

Turning to `COc1cc(/C(C)=N/NC(=O)CSc2nnc(C)s2)ccc1O`, the “activity change, negative = inhibition” value is “inactive”. For `CCN1CCN(c2oc(-c3ccccc3C)nc2S(=O)(=O)c2ccccc2)CC1`, the “activity change, negative = inhibition” value is “inactive”.

As for `COC(=O)C1=C[C@@H](C(=O)OC)[C@@H]2C3=C(C(=O)[C@]2(C)NC(=O)c2ccccc2)[C@H](C)n2c(=O)n(C)c(=O)n2[C@@H]3C1`, the “activity change, negative = inhibition” value is “inactive”. Same read-out and setting: next, `COc1ccccc1CNC(=O)CNC(=O)N1CC(=O)Nc2ccccc21`: “inactive”. In the case of `CCOC(=O)c1sc2nc(OCCN3CCOCC3)cc(C)c2c1N`, the “activity change, negative = inhibition” value is “inactive”. In the case of `COC(=O)C[C@H]1CC[C@@H]2[C@@H](COc3ccc(NC(=O)c4cccc(OC)c4)cc3C(=O)N2C)O1`, the “activity change, negative = inhibition” value is “inactive”. As to `C[C@H](CO)N1C[C@H](C)[C@H](CN(C)Cc2ccc(Oc3ccccc3)cc2)Oc2cc(-c3ccncc3)ccc2S1(=O)=O`, the “activity change, negative = inhibition” value is “inactive”. Consider `Cc1[nH]nc(-c2ccc(O)cc2O)c1Oc1ccccc1`, for which the “activity change, negative = inhibition” value was “inactive”. On the same count and under the same terms, next, `Cc1cc(SCC(=O)N/N=C/c2ccco2)nc2ccccc12`: “inactive”; `Nc1ccc(-c2nc3ccc(N)cc3o2)cc1`: “inactive”; `ClCC(CNCc1ccccc1)c1ccccc1` (centres undefined): “inactive”.

For the compound `O=C(C[C@@H]1CC[C@@H]2[C@H](COC[C@@H](O)CN2C(=O)Nc2ccc(Cl)c(Cl)c2)O1)NCc1ccncc1`, the “activity change, negative = inhibition” value was “inactive”.

In general, AC50 refers to the midpoint of the concentration-response curve, whichever way the signal moves.
